Results taken from publication PMC10268404, “Insight into broad substrate specificity and synergistic contribution of a fungal α-glucosidase in Chinese Nong-flavor daqu” (Microbial Cell Factories, 2023).

Tests used:
[1] = test system: T1, NFAg31A (also printed NFEg31A), product of ORF15963; experiment: HPAEC-PAD of released glucose, Michaelis-Menten fit; type: biochemical; settings: pH 7.0, 45 ℃, 15 min, 0.25 µM enzyme
T1 construct: 960 aa ORF without 30 aa signal peptide (primer-derived start M-VKHENFKK, end REWRI), incl; C-terminal DUF5100; 6xHis kept, printed C-terminal (but reverse primer holds a stop, so probably N-terminal pET-28a tag); E. coli BL21(DE3)
From the text: HPAEC-PAD of released glucose, Michaelis-Menten fit on NFAg31A (also printed NFEg31A), product of ORF15963

[2] = test system: T1, NFAg31A (also printed NFEg31A), product of ORF15963; experiment: p-nitrophenol release at […] nm, Michaelis-Menten fit; type: biochemical; settings: pH 7.0, 45 ℃, 15 min, 0.25 µM enzyme

## OC[C@H]1O[C@H](O[C@H]2C(O)O[C@H](CO)[C@@H](O)[C@@H]2O)[C@H](O)[C@@H](O)[C@@H]1O (stereo partly shown) [Kojibiose]
[1]
  Km: 3.9 ± 0.3 mM

## OC[C@H]1O[C@H](O[C@H]2[C@H](O)[C@@H](O)C(O)O[C@@H]2CO)[C@H](O)[C@@H](O)[C@@H]1O (stereo partly shown) [Maltose]
[1]
  Km: 11.5 ± 0.7 mM

## OC[C@H]1O[C@H](O[C@H]2[C@H](O)[C@@H](CO)OC(O)[C@@H]2O)[C@H](O)[C@@H](O)[C@@H]1O (stereo partly shown) [Nigerose]
[1]
  Km: 19.3 ± 2.5 mM

## O=[N+]([O-])c1ccc(O[C@H]2O[C@H](CO)[C@@H](O)[C@H](O)[C@H]2O)cc1 [pNPαG, p-Nitrophenyl-α-D-glucopyranoside]
[2]
  Km: 0.55 ± 0.06 mM
